The values that follow are results of earlier work, collected in US20220192984A1, “PHARMACEUTICAL COMPOSITIONS COMPRISING OTIC THERAPEUTIC AGENTS AND RELATED METHODS” (Frequency Therapeutics, Inc., priority 2018, published 2022).

The term IC50 denotes the concentration at which inhibition is half-maximal.

The data set has as its target HER4 (Homo sapiens, UniProt Q15303). The settings on record: cited from earlier work.

Chain of HER4 (Q15303 26-1308, species assumed): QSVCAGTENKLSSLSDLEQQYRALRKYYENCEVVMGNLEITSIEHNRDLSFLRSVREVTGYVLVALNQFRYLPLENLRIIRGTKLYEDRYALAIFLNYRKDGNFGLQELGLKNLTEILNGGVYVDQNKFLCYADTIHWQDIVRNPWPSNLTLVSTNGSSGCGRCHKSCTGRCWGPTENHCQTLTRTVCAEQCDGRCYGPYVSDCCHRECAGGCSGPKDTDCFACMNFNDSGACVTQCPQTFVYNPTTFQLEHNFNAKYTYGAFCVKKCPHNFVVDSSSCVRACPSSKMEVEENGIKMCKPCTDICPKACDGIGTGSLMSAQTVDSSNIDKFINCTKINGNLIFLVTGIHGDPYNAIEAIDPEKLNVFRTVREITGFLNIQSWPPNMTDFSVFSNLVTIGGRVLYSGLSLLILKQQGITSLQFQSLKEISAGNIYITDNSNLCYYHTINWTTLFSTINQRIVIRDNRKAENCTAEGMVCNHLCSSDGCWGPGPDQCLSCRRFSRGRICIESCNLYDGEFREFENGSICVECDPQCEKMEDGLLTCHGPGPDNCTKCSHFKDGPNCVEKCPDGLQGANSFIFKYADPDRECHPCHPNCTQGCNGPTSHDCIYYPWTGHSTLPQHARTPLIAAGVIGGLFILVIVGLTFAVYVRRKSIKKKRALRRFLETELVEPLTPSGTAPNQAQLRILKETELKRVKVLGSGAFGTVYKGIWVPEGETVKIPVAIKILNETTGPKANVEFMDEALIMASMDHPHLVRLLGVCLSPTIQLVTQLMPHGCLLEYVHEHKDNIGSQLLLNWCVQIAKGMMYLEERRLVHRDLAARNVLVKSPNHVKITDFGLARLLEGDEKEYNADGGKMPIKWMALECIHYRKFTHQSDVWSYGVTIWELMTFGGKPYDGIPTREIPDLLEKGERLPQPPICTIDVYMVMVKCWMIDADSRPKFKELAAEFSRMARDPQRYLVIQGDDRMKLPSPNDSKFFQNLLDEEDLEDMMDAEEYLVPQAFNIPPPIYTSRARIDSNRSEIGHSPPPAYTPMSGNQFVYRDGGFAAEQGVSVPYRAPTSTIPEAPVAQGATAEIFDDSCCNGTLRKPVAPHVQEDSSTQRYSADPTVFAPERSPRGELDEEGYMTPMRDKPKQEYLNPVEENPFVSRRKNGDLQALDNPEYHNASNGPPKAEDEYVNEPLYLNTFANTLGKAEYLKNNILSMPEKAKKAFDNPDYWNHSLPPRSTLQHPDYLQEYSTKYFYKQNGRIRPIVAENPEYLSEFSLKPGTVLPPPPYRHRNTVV

On to `CNC(=O)CN1CCC(Oc2cc3c(Nc4cccc(Cl)c4F)ncnc3cc2OC)CC1` [Sapitinib/AZD8931/], for which the IC50 is 3 nM.
